Assay results as given in publication PMC6259918, “Antitrypanosomal Activity of Novel Benzaldehyde-Thiosemicarbazone Derivatives from Kaurenoic Acid ^†” (Molecules, 2011).
Read-outs that look alike come from different tables or passages of the source.

Legend:
[1] = system: epimastigote forms of T. cruzi (Y strain); experiment: Antitrypanosomal assay; assay type: cell-based, Trypanosoma cruzi; settings: for SI (selectivity index): SI: CC50 LLMCK2 / IC50 epimastigote; for IC50: mean ± SD
Procedure: Stock solutions of the synthetic compounds and kaurenoic acid (5, 10, 50, and 100 µg/mL) were prepared in dimethylsulfoxide with their final concentrations not exceeding 1.0%. For the assay, epimastigote forms of T. cruzi (Y strain) were harvested during the exponential phase of growth, resuspended in liver infusion tryptose broth supplemented with 10% inactivated fetal bovine serum (Gibco Invitrogen Corporation, New York, NY, USA) and plated on 24-well plates at a concentration of 1 × 10^6 cells/mL. One milliliter of diluted compounds were included in each well and incubated for 96 h at 28 °C. Cell density was determined by counting the parasites in a hemocytometer chamber (Improved Double Neubauer) under a light microscope. All assays were carried out twice, in duplicate, on separate occasions.

[2] = Cytotoxicity assay (sulforhodamine B); assay type: cell-based; settings: rhesus monkey, LLMCK2 cells, 96 h incubation, mean ± SD
Procedure: The cytotoxic effect was evaluated against LLMCK2 cells in 96-well plates. A suspension of 2.5 × 10^4 cells was added to each well and left to grow as a monolayer for 24 h at 37 °C in a 5% CO2/air mixture. After this period, different concentrations of the synthetic compounds and kaurenoic acid (10 to 100 µg/mL) were added to the wells, and the plate was incubated for 96 h under the same conditions described above. The cells were fixed in 10% trichloroacetic acid at 4 °C for 1 h, washed five times with distilled water, and allowed to dry at room temperature. A solution of 4% sulforhodamine B (in 1% acetic acid) was added to each well, and the plate was kept protected from light for 30 min at 4 °C. The wells were then washed four times with 1% acetic acid, an aliquot (150 µL) of 10 mM Tris-base was added, and the aliquot was homogenized for 15 min. The absorbance was read at 530 nm in a microplate spectrophotometer, and data were calculated as the percentage of inhibition of growth. A concentration for 50% cellular toxicity (CC50) was defined as the concentration that reduced the optic density of treated cells by 50% relative to untreated cells.

[3] = Trypanosoma cruzi, 96 h, epimastigote form of T. cruzi Y strain, 96 h at 28 °C, parasite counting, read-out: Epimastigote IC50

melting point | Compound | SI (selectivity index) [1] | IC50 [1, 3] | CC50 [2] | IC50 ([1]; Trypanosoma cruzi, 96 h, read-out: Epimastigote IC50, epimastigote form of T. cruzi Y strain, 96 h at 28 °C, parasite counting) | IC50 ([1]; read-out: Epimastigote IC50, epimastigote form of T. cruzi Y strain, 96 h at 28 °C, parasite counting) | CC50 at 96 h [2] | IC50 ([1]; epimastigote form of T. cruzi Y strain, 96 h at 28 °C, parasite counting, read-out: Epimastigote IC50)
– | C=C1C[C@@]23CC[C@H]4[C@@](C)(CCC[C@@]4(C)C(=O)O)[C@@H]2CC[C@@H]1C3 [compound 1, ent-kaur-16-en-19-oic acid, reference compound] | 0.6 | 102 µM | 59.5 ± 0.1 µM | – | – | – | –
165 °C | C[C@@]12CCC[C@@](C)(C(=O)O)[C@H]1CC[C@@]13C[C@@H](CC[C@H]12)[C@](C)(SC#N)C3 [compound 3, ent-Kauren-16α-thiocyane-16β-methyl-19-oic acid] | – | 43.7 µM | – | – | – | 103.4 ± 0.7 µM | 43.4 ± 5.6 µM
131 °C | C[C@@]12CCC[C@@](C)(C(=O)O)[C@H]1CC[C@@]13C[C@@H](CC[C@H]12)[C@](C)(NC(=S)NN)C3 [compound 4, N4-[ent-Kauren-16β-methyl-19-oic acid]-thiosemicarbazide] | 0.7 | 107 ± 13 µM | – | – | – | 71.4 ± 0.7 µM | –
202 °C | C[C@@]12CCC[C@@](C)(C(=O)O)[C@H]1CC[C@@]13C[C@@H](CC[C@H]12)[C@](C)(NC(=S)N/N=C/c1ccccc1)C3 [compound 5, N1-(E)-Phenyl-N4-[ent-kauren-16β-methyl-19-oic acid]-thiosemicarbazone] | 0.5 | 68.2 ± 11.2 µM | – | – | – | 31.1 ± 1 µM | –
223 °C | Cc1ccc(/C=N/NC(=S)N[C@]2(C)C[C@@]34CC[C@H]5[C@@](C)(CCC[C@@]5(C)C(=O)O)[C@@H]3CC[C@@H]2C4)cc1 [compound 6, N1-(E)-[4-Methylphenyl]-N4-[ent-kauren-16β-methyl-19-oic acid]-thiosemicarbazone] | – | 23.4 ± 7.7 µM | – | – | – | 122.4 ± 1 µM | –
214.5 °C | COc1ccc(/C=N/NC(=S)N[C@]2(C)C[C@@]34CC[C@H]5[C@@](C)(CCC[C@@]5(C)C(=O)O)[C@@H]3CC[C@@H]2C4)cc1 [compound 7, N1-(E)-[4-Methoxyphenyl]-N4-[ent-kauren-16β-methyl-19-oic acid]-thiosemicarbazone] | – | 16 ± 4.4 µM | – | – | – | 78.2 µM | –
191.5 °C | C[C@@]12CCC[C@@](C)(C(=O)O)[C@H]1CC[C@@]13C[C@@H](CC[C@H]12)[C@](C)(NC(=S)N/N=C/c1ccc(O)cc1)C3 [compound 8, N1-(E)-[4-Hydroxyphenyl]-N4-[ent-kauren-16β-methyl-19-oic acid]-thiosemicarbazone] | – | 18.3 ± 4 µM | – | – | – | 29.5 ± 0.8 µM | –
231 °C | CN(C)c1ccc(/C=N/NC(=S)N[C@]2(C)C[C@@]34CC[C@H]5[C@@](C)(CCC[C@@]5(C)C(=O)O)[C@@H]3CC[C@@H]2C4)cc1 [compound 9, N1-(E)-[4-Dimethylaminophenyl]-N4-[ent-kauren-16β-methyl-19-oic acid]-thiosemicarbazone] | – | 79.5 ± 17.9 µM | – | – | – | 248.5 ± 0.6 µM | –
211 °C | C[C@@]12CCC[C@@](C)(C(=O)O)[C@H]1CC[C@@]13C[C@@H](CC[C@H]12)[C@](C)(NC(=S)N/N=C/c1ccccc1[N+](=O)[O-])C3 [compound 10, N1-(E)-[2-Nitrophenyl]-N4-[ent-kauren-16β-methyl-19-oic acid]-thiosemicarbazone] | – | 2 ± 1.1 µM | – | – | – | 17.1 ± 0.1 µM | –
217 °C | C[C@@]12CCC[C@@](C)(C(=O)O)[C@H]1CC[C@@]13C[C@@H](CC[C@H]12)[C@](C)(NC(=S)N/N=C/c1cccc([N+](=O)[O-])c1)C3 [compound 11, N1-(E)-[3-Nitrophenyl]-N4-[ent-kauren-16β-methyl-19-oic acid]-thiosemicarbazone] | – | 19 µM | – | – | – | 104.8 ± 0.4 µM | –
219.5 °C | C[C@@]12CCC[C@@](C)(C(=O)O)[C@H]1CC[C@@]13C[C@@H](CC[C@H]12)[C@](C)(NC(=S)N/N=C/c1ccc([N+](=O)[O-])cc1)C3 [compound 12, N1-(E)-[4-Nitrophenyl]-N4-[ent-kauren-16β-methyl-19-oic acid]-thiosemicarbazone] | 0.1 | 117 ± 12.8 µM | – | – | – | 15.2 µM | –
202.5 °C | C[C@@]12CCC[C@@](C)(C(=O)O)[C@H]1CC[C@@]13C[C@@H](CC[C@H]12)[C@](C)(NC(=S)N/N=C/c1ccccc1Cl)C3 [compound 13, N1-(E)-[2-Chlorophenyl]-N4-[ent-kauren-16β-methyl-19-oic acid]-thiosemicarbazone] | – | 39.4 ± 14.3 µM | – | – | – | 364 ± 11.3 µM | –
207 °C | C[C@@]12CCC[C@@](C)(C(=O)O)[C@H]1CC[C@@]13C[C@@H](CC[C@H]12)[C@](C)(NC(=S)N/N=C/c1cccc(Cl)c1)C3 [compound 14, N1-(E)-[3-Chlorophenyl]-N4-[ent-kauren-16β-methyl-19-oic acid]-thiosemicarbazone] | – | 23.5 ± 7 µM | – | – | – | 56.2 ± 0.4 µM | –
223.5 °C | C[C@@]12CCC[C@@](C)(C(=O)O)[C@H]1CC[C@@]13C[C@@H](CC[C@H]12)[C@](C)(NC(=S)N/N=C/c1ccc(Cl)cc1)C3 [compound 15, N1-(E)-[4-Chlorophenyl]-N4-[ent-kauren-16β-methyl-19-oic acid]-thiosemicarbazone] | – | 14.9 ± 0.3 µM | – | – | – | 28.7 ± 1.1 µM | –

Compound | melting point | SI (selectivity index) [1] | IC50 [1, 3] | CC50 [2] | IC50 ([1]; Trypanosoma cruzi, 96 h, read-out: Epimastigote IC50, epimastigote form of T. cruzi Y strain, 96 h at 28 °C, parasite counting) | IC50 ([1]; read-out: Epimastigote IC50, epimastigote form of T. cruzi Y strain, 96 h at 28 °C, parasite counting) | CC50 at 96 h [2] | IC50 ([1]; epimastigote form of T. cruzi Y strain, 96 h at 28 °C, parasite counting, read-out: Epimastigote IC50)
C[C@@]12CCC[C@@](C)(C(=O)O)[C@H]1CC[C@@]13C[C@@H](CC[C@H]12)[C@](C)(N=C=S)C3 [compound 2, ent-Kauren-16α-isothiocyane-16β-methyl-19-oic acid] | 174 °C | 0.9 | – | – | 58.4 µM | 58.2 ± 0.2 µM | 52 ± 0.3 µM | –
